Entries after “also recorded” stand apart in the source; their conditions may differ. Read-outs that look alike come from different tables or passages of the source.

The values that follow come from patent US4923852A, “Aminoalkyl naphthalenediols as host resistance enhancers against viral infections” (Merck & Co., Inc., priority 1987, dated 1990).

Data set [1] relates to HIV. The conditions noted are these: cited from earlier work.
Data set [2] relates to AIDS-related Kaposi's sarcoma. The conditions noted are these: some AIDS-related Kaposi's sarcoma cases; cited from earlier work.
Data set [3] concerns AIDS or AIDS-related complex (ARC). The following applies: clinical; cited from earlier work.
The test system of data set [4] is HIV. The following applies: clinical; cited from earlier work.
The conditions of data set [5]: cited from earlier work.
The subject of data set [6] is T cell levels. The following applies: 13 AIDS patients with perpetually swollen glands; cited from earlier work.
Data set [7] has as its system HIV reverse transcriptase. The following applies: cited from earlier work.
Data set [8] concerns Pseudomonas aeruginosa. The experiment in a line: In vivo immunopotentiation against challenge with lethal doses of Pseudomonas aeruginosa, cyclophosphamide-immunocompromised mouse. Also on record: species or system mouse (random outbred albino CFl female). The conditions noted are these: 250 mg/kg cyclophosphamide i.p., 4 days prior to challenge. The procedure:
An immunocompromised mouse model, established by intraperitoneal treatment of random outbred albino CFl female mice (ca. 25g) with 250 mg/kg body weight of cyclophosphamide (CY) 4 days Prior to bacterial challenge with Pseudomonas aeruginosa, was used as the assay system. In this model, test compounds were injected only once (2 hours) after CY treatment. After bacterial challenge, LD50 's (50% lethal doses) were determined. Increased LD50 's in treated mice over controls indicated a return to normality. The LD50 for untreated or vehicle-treated mice was routinely 10^6 -10^7 colony forming units (CFU) of P. aeruginosa organisms. After CY treatment, the LD50 was reduced to 10^1 to 10^2 CFU's. The protection afforded by test compound (Protective Index) was determined by calculating the number of LD50 's of protection of treated animals over the LD50 of CY controls.

Data set [9] concerns reverse transcriptase in several retroviruses. The following applies: in vitro; cited from earlier work.
For data set [10] the following is noted: in vivo, cited from earlier work.

For the molecule α-Interferon, the “effect on HIV infectivity / growth” value in [1] is on record as “Checks the growth of HIV in vitro”. In data set [2], the tumor regression entry is reported as “induced tumor regression in some AIDS-related Kaposi's sarcoma cases”.

As for `NC(=O)c1ncn([C@@H]2O[C@H](CO)[C@@H](O)[C@H]2O)n1` [Ribavirin, 1-β-D-ribofuranosyl-1,2,4-triazole-3-carboxamide], the “effect on immune function in patients” value in data set [3] is “improved immune function in AIDS patients”. The “effect on HIV reproduction / viral replication in humans” value in data set [4] was “inhibited viral replication”. In data set [5] (in vivo), the safety profile result was “acceptable” and the tolerability result is “well tolerated”.

Regarding `CC(C)(S)[C@@H](N)C(=O)O` [D-Penicillamine, 3-mercapto-D-valine], in data set [6], the “effect on T cell levels” value is listed as “temporarily depressed T cell levels”. In data set [4], the “effect on HIV reproduction / viral replication in humans” value is “Inhibits HIV reproduction in humans; also recorded: suppressed the virus”.

As to `CC(=O)Nc1ccc(C(=O)O)cc1.CC(=O)Nc1ccc(C(=O)O)cc1.CC(=O)Nc1ccc(C(=O)O)cc1.CC(O)CN(C)C.CC(O)CN(C)C.CC(O)CN(C)C.O=c1[nH]cnc2c1ncn2[C@@H]1O[C@H](CO)[C@@H](O)[C@H]1O` [Inosine pranobex, p-Acetamidobenzoic acid salt of dimethylaminoisopropanol: inosinate complex], the “effect on immune function in patients” value in data set [3] is listed as “improve immune function in ARC patients”.

With `Cc1ccc(C(=O)Nc2ccc(S(=O)(=O)O)c3cc(S(=O)(=O)O)cc(S(=O)(=O)O)c23)cc1NC(=O)c1cccc(NC(=O)Nc2cccc(C(=O)Nc3cc(C(=O)Nc4ccc(S(=O)(=O)O)c5cc(S(=O)(=O)O)cc(S(=O)(=O)O)c45)ccc3C)c2)c1` [Suramin], in [7], the “inhibition of HIV reverse transcriptase” value was “Potent inhibitor of HIV reverse transcriptase”. In addition, the “efficacy in AIDS or ARC patients” value in [3] was “little or no evidence of clinical improvement or immunologic recovery”.

Regarding `O=P1(N(CCCl)CCCl)NCCCO1` (stereo not shown) [cyclophosphamide], in data set [8], the “LD50 of P. aeruginosa after CY treatment” value is listed as 10^1 to 10^2 CFU.

On to “ammonium 21-tungsto-9-antimoniate [HPA-23]”, for which the “inhibition of reverse transcriptase in several retroviruses” value in data set [9] is “Inhibits reverse transcriptase in several retroviruses in vitro”. For the same molecule, the “effect on HIV infectivity / growth” value in [1] is recorded as “some tendency to check the growth of HIV”. Moreover, the “efficacy in AIDS or ARC patients” value in data set [3] is listed as “no therapeutic benefit has been documented in AIDS patients”.

Regarding `CO[C@H]1/C=C/O[C@@]2(C)Oc3c(C)c(O)c4c(c3C2=O)C2=NC3(CCN(CC(C)C)CC3)NC2=C(NC(=O)/C(C)=C\C=C\[C@H](C)[C@H](O)[C@@H](C)[C@@H](O)[C@@H](C)[C@H](OC(C)=O)[C@@H]1C)C4=O` [Ansamycin, rifabutin], the “efficacy in AIDS or ARC patients” value in data set [3] was “some efficacy in treating AIDS patients with an opportunistic infection caused by the bacterium Mycobacterium aviumintracellulare”.

With `Cc1cn([C@H]2C[C@H](N=[N+]=[N-])[C@@H](CO)O2)c(=O)[nH]c1=O` [Azidothymidine, 3'-azido-3'-deoxythymidine], the “efficacy in AIDS or ARC patients” value in [3] is recorded as “promise in prolonging lives of patients with AIDS or AIDS-related complex (ARC)”. Moreover, in data set [10] (po), the oral absorption result was “Well absorbed orally”. In [10], the “half-life in the body” value is “relatively short half-life” and the “penetration of central nervous system” value is reported as “effectively penetrates central nervous system”. For the same molecule, in data set [5] (clinical), the “adverse / toxic effects in humans” value is “some toxicity, with anemia and headaches”.

As for `O=C(O)P(=O)(O)O` [Foscarnet, trisodium phosphonoformate], in [7], the “inhibition of HIV reverse transcriptase” value is recorded as “Inhibits HIV reverse transcriptase activity in vitro at levels pharmacologically acceptable in vivo”. Besides, in data set [5] (in vivo), the “adverse / toxic effects in humans” value is reported as “serious side effects”.

As for `CC(C)(N1CC1C#N)N1CC1C(N)=O` (stereo not shown) [Azimexon], the “efficacy in AIDS or ARC patients” value in data set [3] is “improvements in symptoms and immune function in patients with ARC but not AIDS”. For the same molecule, in data set [5] (clinical), the “adverse / toxic effects in humans” value is given as “only toxic effect was mild hemolysis”.
